Reference: patent publication US20230165851A1, “6'-METHOXYCINCHONAN-9-OLS FOR THE TREATMENT OF CORONAVIRAL INFECTIONS” (Immunologik GmbH, priority 2020, published 2023)
Where a name gives a salt, the structure may show the parent alone. Read-outs that look alike come from different tables or passages of the source.

Key:
SARS-CoV-2 [1] = format: cell-based; conditions: infected Vero-B4 cells, 3 dpi; for inhibition of SARS-CoV-2 protein generation compared with same/respective concentration of chloroquine or hydroxychloroquine (densitometry): comparators at 10 μM
SARS-CoV-2 [2] = format: cell-based; conditions: infected Vero-B4 cells, 3 dpi
Vero-B4 cells = experiment: WST-1 cell viability (cytotoxicity) assay in non-infected Vero-B4 cells; conditions: 3 days; for toxic effect (WST assay): antivirally effective concentrations
Method: Toxicity was assessed with a WST assay. Herein viable cells with an intact mitochondrial succinate-tetrazolium dehydrogenase system effect an enzymatic conversion of the feebly red tetrazolium salt WST-1 (4-[3-(4-iodophenyl)-2-(4-nitrophenyl)-2H-5-tetrazolio]-1,3 benzene disulfonate) into dark red formazan. This color change can be measured photometrically in a spectrophotometer. Thus, the WST assay is a very sensitive method for measuring the toxicity of substances on the cell metabolism.
In FIG. 4 the percentage of viable cells is depicted in comparison to untreated cells. The value for untreated cells was set to 100%. 1 μM staurosporine (an indolocarbazole compound from Streptomyces staurosporeus, an apoptosis inducer) was used as positive control.
In FIG. 8 the percentage of viable cells is depicted in comparison to untreated cells wherein the value for untreated cells was set to 100%. Again 1 μM staurosporine was used as positive control.

[3] = quinine sulfate series up to 100 μM

SMILES: C=C[C@H]1C[N@@]2CC[C@H]1C[C@H]2[C@H](O)c1ccnc2ccc(OC)cc12 [quinine sulfate]
- generation of SARS-CoV-2 proteins (densitometric evaluation of nucleoprotein in virus fraction) (SARS-CoV-2 [1]; 100 nM to 100 μM): inhibited in a dose-dependent manner
- inhibition of SARS-CoV-2 replication (Western blot) (SARS-CoV-2 [1]; 100 nM, 1 μM, 10 μM and 100 μM): dose-dependent inhibition
- block of virus replication (Western blot) (SARS-CoV-2 [1]; 100 μM): complete block of virus replication
- inhibition of SARS-CoV-2 protein generation compared with same/respective concentration of chloroquine or hydroxychloroquine (densitometry) (SARS-CoV-2 [1]): higher percentage
- reduction compared with 10 μM chloroquine or 10 μM hydroxychloroquine (Western blot) (SARS-CoV-2 [1]; [3]): significantly higher
- reduction in the amount of SARS-CoV-2 RNA copies (qRT-PCR) (SARS-CoV-2 [2]; 100 nM, 1 μM, 10 μM and 100 μM): dose-dependent reduction
- reduction of SARS-CoV-2 RNA copies (qRT-PCR) (SARS-CoV-2 [2]; 10 μM): approximately 85%
- block of virus spread (qRT-PCR) (SARS-CoV-2 [2]; 100 μM): complete block of virus spread
- reduction compared with 10 μM chloroquine or 10 μM hydroxychloroquine (qRT-PCR) (SARS-CoV-2 [2]; [3]): significantly higher
- toxic effect (WST assay) (Vero-B4 cells): did not display any significant toxic effect

SMILES: C=C[C@H]1C[N@@]2CC[C@H]1C[C@@H]2[C@@H](O)c1ccnc2ccc(OC)cc12 [quinidine sulfate]
- block of virus replication (Western blot) (SARS-CoV-2 [1]; 20 μM): nearly complete block of virus replication
- inhibition of SARS-CoV-2 replication (Western blot) (SARS-CoV-2 [1]; 2.5, 5, 10 and 20 μM): dose-dependent inhibition
- generation of SARS-CoV-2 proteins (densitometric evaluation of nucleoprotein in virus fraction) (SARS-CoV-2 [1]; 2.5 to 20 μM): inhibited in a dose-dependent manner
- inhibition of SARS-CoV-2 protein generation compared with same/respective concentration of chloroquine or hydroxychloroquine (densitometry) (SARS-CoV-2 [1]): higher percentage
- reduction compared with 10 μM chloroquine or 10 μM hydroxychloroquine (Western blot) (SARS-CoV-2 [1]; quinidine sulfate series up to 20 μM): clearly higher
- reduction of SARS-CoV-2 RNA copies (qRT-PCR) (SARS-CoV-2 [2]; 2.5 μM, 5 μM, 10 μM and 20 μM): dose-dependent reduction
- reduction of SARS-CoV-2 RNA copies (qRT-PCR) (SARS-CoV-2 [2]; 10 μM): approximately 82%
- reduction compared with 10 μM chloroquine or 10 μM hydroxychloroquine (qRT-PCR) (SARS-CoV-2 [2]; 20 μM): significant better reduction
- reduction of SARS-CoV-2 RNA copies (qRT-PCR) (SARS-CoV-2 [2]; 20 μM): approximately 97%
- toxic effect (WST assay) (Vero-B4 cells): did not display any significant toxic effect
- concentration up to which no toxic effect was detectable (WST assay) (Vero-B4 cells; tested 2.5 to 80 μM): Up to 80 μM
